Measured values as given in paper PMC3783409, “Enzymatic Synthesis of RNAs Capped with Nucleotide Analogues Reveals the Molecular Basis for Substrate Selectivity of RNA Capping Enzyme: Impacts on RNA Metabolism” (PLoS ONE, 2013).
Like-named read-outs stand apart in the source and are kept apart here.

Legend:
PBCV-1 GTase [1] = target: T1, PBCV-1 GTase (Paramecium bursaria Chlorella virus 1, UniProt Q84424); test: Inhibition of the first step of the GTase reaction (E-GMP formation); type: biochemical; design: His-tag; made in house; conditions: for Effect on radiolabelled EpG signal: unlabelled nucleotide 2 mM, GTase 10 µM
T1 sequence (Q84424 whole entry): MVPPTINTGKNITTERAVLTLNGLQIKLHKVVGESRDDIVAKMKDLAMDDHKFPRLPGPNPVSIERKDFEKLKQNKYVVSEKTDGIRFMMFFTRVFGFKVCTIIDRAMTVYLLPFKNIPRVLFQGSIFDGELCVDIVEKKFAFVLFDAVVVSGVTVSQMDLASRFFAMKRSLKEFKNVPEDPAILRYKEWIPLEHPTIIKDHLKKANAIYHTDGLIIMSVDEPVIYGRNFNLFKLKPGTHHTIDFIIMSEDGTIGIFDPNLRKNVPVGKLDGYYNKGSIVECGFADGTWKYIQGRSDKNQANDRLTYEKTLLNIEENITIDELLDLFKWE
Description: Inhibition of the first step of the GTase reaction was evaluated by carrying out the standard first step GTase reaction in the presence of 0.2 pmol of [α-^32P] GTP and 2 mM of either unlabelled GTP or each unlabelled nucleotide analogue separately. The IC50 of nucleotide analogues was determined by carrying out the standard first step reaction in the presence of 0.2 pmol of [α-^32P] GTP and increasing concentrations of up to 2 mM of each nucleotide analogue. The reactions were stopped by the addition of EDTA to 10 mM and SDS to 1% and analyzed by electrophoresis through a 12.5% polyacrylamide gel containing 0.1% SDS. The radiolabelled proteins were visualized by autoradiography of the gel. Radiolabelled covalent complex formation was quantified by scanning the gel with a PhosphorImager (Amersham Biosciences).

PBCV-1 GTase [2] = target: T1, PBCV-1 GTase; test: In vitro RNA capping efficiency (nuclease P1 / alkaline phosphatase digestion, TLC); conditions: for Relative efficiency of RNA capping, 1st and 2nd steps: nucleotide 2 mM, normalized onto the value obtained with GTP
PBCV-1 GTase [3] = target: T1, PBCV-1 GTase; test: Transfer of nucleotide analogues onto internally labelled 50 nt RNA (Urea-PAGE); conditions: 32P-internally labelled RNA
eIF4E protein = target: T2, eIF4E protein (Mus musculus, UniProt P63073); test: Binding of free NTP to purified eIF4E (fluorescence saturation isotherm); design: species or system murine; conditions: 2 µM protein, pH 8.0
T2 construct: His-tag; made in house; host or cells: bacteria
T2 sequence (P63073 whole entry): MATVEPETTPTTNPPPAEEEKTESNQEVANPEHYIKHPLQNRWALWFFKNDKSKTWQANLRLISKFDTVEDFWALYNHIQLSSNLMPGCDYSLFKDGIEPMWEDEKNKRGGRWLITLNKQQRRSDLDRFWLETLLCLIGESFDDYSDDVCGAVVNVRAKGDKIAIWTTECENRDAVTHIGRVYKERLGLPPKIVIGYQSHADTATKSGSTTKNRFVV
Description: The binding of RNAs harboring modified RNA cap structures to the eIF4E protein was evaluated by fluorescence spectroscopy as described previously [23]. Briefly, excitation was performed at a wavelength of 290 nm fluorescence using a Hitachi F-2500 fluorescence spectrophotometer. Background emission was eliminated by subtracting the signal from the buffer containing the RNA substrate. The extent to which the RNA binds to purified eIF4E protein was determined by monitoring the fluorescence emission of a fixed concentration of proteins with and without the appropriate RNA (2 µM).
(B) Increasing amounts of NTP were added to a 2 µM solution of the purified protein in a binding buffer (50 mM Tris/HCl, pH 8.0, and 50 mM KOAc) and following excitation of tryptophan residues at 290 nm the emission spectrum was scanned from 310 to 440 nm. […] The data was fit to a binding curve.

PBCV-1 GTase [4] = target: T1, PBCV-1 GTase; test: Formation of the covalent enzyme-nucleotide intermediate (SDS-PAGE, Coomassie blue); type: biochemical; design: His-tag; made in house; conditions: nucleotide analogue 2 mM, magnesium ions 5 mM
Description: The standard first step reaction was carried out in the presence of each nucleotide analogue (2 mM) in the presence or absence of potassium pyrophosphate (1 mM). The reactions were resolved on SDS-PAGE followed by Coomassie blue staining.

[5] = read-out: IC50 for E-GMP formation, 1st step, 0.2 pmol [α-32P] GTP, PBCV-1 GTase 10 µM, analogue up to 2 mM, pH 7.5, 1hr at 30°C

Nc1nc2c(nc(I)n2[C@@H]2O[C@H](COP(=O)(O)OP(=O)(O)OP(=O)(O)O)[C@@H](O)[C@H]2O)c(=O)[nH]1 [A14, 8-Iodo GTP]
IC50 (PBCV-1 GTase [1]; [5]): 420 µM
Relative efficiency of RNA capping, 1st and 2nd steps (PBCV-1 GTase [2]): 1.0

Nc1ncnc2c1ncn2[C@@H]1O[C@H](COP(=O)(O)OP(=O)(O)OP(=O)(O)O)[C@@H](O)[C@H]1O [ATP, reference compound]
IC50 (PBCV-1 GTase [1]; 0.2 pmol [α-32P] GTP, PBCV-1 GTase 10 µM, analogue up to 2 mM, pH 7.5, 1hr at 30°C, read-out: IC50 for E-GMP formation, 1st step): > 2000 µM
Effect on radiolabelled EpG signal (PBCV-1 GTase [1]): no apparent effect
Formation of capped RNA (slower migrating species) (PBCV-1 GTase [3]): no effect

Nc1nc2c(ncn2[C@@H]2O[C@H](COP(=O)(O)OP(=O)(O)OP(=O)(O)O)[C@@H](O)[C@H]2O)c(=O)[nH]1 [GTP, reference compound]
Kd for purified eIF4E (eIF4E protein): much higher apparent binding constant
IC50 (PBCV-1 GTase [1]): 100 µM
Effect on radiolabelled EpG signal (PBCV-1 GTase [1]): maximum loss of the radiolabelled EpG signal
Formation of capped RNA (slower migrating species) (PBCV-1 GTase [3]): formation of a slower migrating species corresponding to the capped RNA
Fraction of capped RNA over the total transcripts (PBCV-1 GTase [2]; cap donor 2 mM): 0.35 ±0.05
Relative efficiency of RNA capping, 1st and 2nd steps (PBCV-1 GTase [2]): 1.0

Nc1nc(N)c2ncn([C@@H]3O[C@H](COP(=O)(O)OP(=O)(O)OP(=O)(O)O)[C@@H](O)[C@H]3O)c2n1 [A4, 2-Amino ATP]
IC50 (PBCV-1 GTase [1]; [5]): > 2000 µM

CSc1nc(N)nc2c1ncn2[C@@H]1O[C@H](COP(=O)(O)OP(=O)(O)OP(=O)(O)O)[C@@H](O)[C@H]1O [A8, 6-Me thio GTP]
IC50 (PBCV-1 GTase [1]; [5]): 430 µM
Relative efficiency of RNA capping, 1st and 2nd steps (PBCV-1 GTase [2]): 0.07

Nc1nc2c(nc(Br)n2[C@@H]2O[C@H](COP(=O)(O)OP(=O)(O)OP(=O)(O)O)[C@@H](O)[C@H]2O)c(=O)[nH]1 [A13, 8-Bromo GTP]
IC50 (PBCV-1 GTase [1]; [5]): 1500 µM
Relative efficiency of RNA capping, 1st and 2nd steps (PBCV-1 GTase [2]): 0.40

Nc1nc(Cl)c2ncn([C@@H]3O[C@H](COP(=O)(O)OP(=O)(O)OP(=O)(O)O)[C@@H](O)[C@H]3O)c2n1 [A5, 2-Amino-6 Cl purine RTP]
IC50 (PBCV-1 GTase [1]; [5]): 160 µM
Relative efficiency of RNA capping, 1st and 2nd steps (PBCV-1 GTase [2]): 0.08
RNA capping (transfer onto RNA) relative to GTP (PBCV-1 GTase [2]): 8%

O=c1[nH]cnc2c1ncn2[C@@H]1O[C@H](COP(=O)(O)OP(=O)(O)OP(=O)(O)O)[C@@H](O)[C@H]1O [A2, ITP]
IC50 (PBCV-1 GTase [1]; [5]): 340 µM
Covalent intermediate: slower migrating species on SDS-PAGE (PBCV-1 GTase [4]): appearance of a slower migrating species
Formation of capped RNA (slower migrating species) (PBCV-1 GTase [3]): formation of a slower migrating species corresponding to the capped RNA
Relative efficiency of RNA capping, 1st and 2nd steps (PBCV-1 GTase [2]): 1.3

O=P(O)(O)OP(=O)(O)OP(=O)(O)OC[C@H]1O[C@@H](n2cnc3c(Cl)ncnc32)[C@H](O)[C@@H]1O [A11, 6-Cl purine RTP]
IC50 (PBCV-1 GTase [1]; [5]): > 2000 µM

Cn1c(N)nc2c(ncn2[C@@H]2O[C@H](COP(=O)(O)OP(=O)(O)OP(=O)(O)O)[C@@H](O)[C@H]2O)c1=O [A1, N1-Me GTP]
IC50 (PBCV-1 GTase [1]; [5]): 80 µM
Covalent intermediate: slower migrating species on SDS-PAGE (PBCV-1 GTase [4]): appearance of a slower migrating species
Relative efficiency of RNA capping, 1st and 2nd steps (PBCV-1 GTase [2]): 1.1

Nc1nc2c(ccn2[C@@H]2O[C@H](COP(=O)(O)OP(=O)(O)OP(=O)(O)O)[C@@H](O)[C@H]2O)c(=O)[nH]1 [A16, 7-deaza GTP]
IC50 (PBCV-1 GTase [1]; [5]): > 2000 µM

CSc1ncnc2c1ncn2[C@@H]1O[C@H](COP(=O)(O)OP(=O)(O)OP(=O)(O)O)[C@@H](O)[C@H]1O [A10, 6-Me thio ITP]
IC50 (PBCV-1 GTase [1]; [5]): 1200 µM
Transferability of covalent intermediate onto RNA (PBCV-1 GTase [2]; 5’-α terminally labelled RNA, TLC): clearly not transferable onto RNA

COc1nc(N)nc2c1ncn2[C@@H]1O[C@H](COP(=O)(O)OP(=O)(O)OP(=O)(O)O)[C@@H](O)[C@H]1O [A7, O6-Me GTP]
IC50 (PBCV-1 GTase [1]; [5]): 150 µM
Relative efficiency of RNA capping, 1st and 2nd steps (PBCV-1 GTase [2]): 0.48
RNA capping (transfer onto RNA) relative to GTP (PBCV-1 GTase [2]): ~ 50%
